Like-named read-outs stand apart in the source and are kept apart here.
Tests used:
[1] = system: Chinese hamster ovary (CHO) AA8 cell line; test: LDH release toxicity assay in cultured CHO AA8 cells; format: cell-based; settings: 1 hour incubation, read-out: LC50 (the source's name)
Description: Various DP-BFA molecules were screened in cultured Chinese hamster ovary (CHO) AA8 cell line in order to establish their toxicity. LC50 values, i.e. the concentrations causing death in 50% of cell population, were calculated from dose response curves. LC50 values of phospho-BFAs were compared to those of the corresponding branched fatty acids (=carbo-BFAs).
Lactate dehydrogenase (LDH) release was used as an assay for the integrity of the cells membrane and, thus, for estimation of toxicity. Cells (2×10^5/ml) were seeded (150 μl/well) in 96 well plates, in RPMI-1640 medium containing 10% FCS. After two days, tested DP-BFA compounds or the control compound myristic acid were added to the plates in declining concentrations ranging from 500 to 1 μg/ml. Cells were harvested after one hour. […] Other controls included, two blank wells and five wells containing cells with no additional drugs. Following centrifugation (1500 rpm, 5 min), 75 μl of the supernatant was transferred to a new plate with 45 μl of an LDH assay mix (Tox-7 kit, Sigma). After 10–20 minutes at room temperature, absorbance was measured using an Elisa Reader 490 nm.
Each experiment was performed in triplicate.

C6 glioma cell line = test: MTT cytotoxicity, C6 glioma; format: cell-based, rat; settings: three days, read-out: EC50 (50% reduction in cell viability)
Description: The cytotoxic activity of various phospho-derivatives of branched-chain fatty acids (DP-BFAs) was assayed in vitro in cell cultures that include normal and malignant cell types. The following cell systems were used: • Primary fibroblasts (human) • Normal bone marrow (BM) cells (mouse) • Primary bronchial epithelial cells (human, from Clonetics, cat. no. CC-2541) • Caco-2—colon cancer cell line (human, ATTC, HTB-37) • C6 glioma cell line (rat, ATCC, CRL-2199) • Neuro2a—neuroblastoma cell line (mouse, ATCC, CCL-131) • SKBR-3—breast cancer cell line (human, ATTC, HTB-30) • HL60—myeloid leukemia cell line (human, ATCC, CCL-240) • U937—myeloid leukemia cell line (human)
Cells were seeded in a microtiter plate in MEM containing 2 mM L-glutamine, 100 units/ml penicillin, 100 ug/ml streptomycin and 10% FCS at 37° C. The cultured cells were incubated, during their linear growth phase in the absence (control group) or presence of various DP-BFAs as indicated. The final concentrations of the tested DP-BFAs ranged from 1.5 to 200 microMolars. At the end of the incubation period, which was five days for the bone marrow cells and three days for all the other cell lines, the cytotoxic effect of the added P-BFA on the cells was estimated by using the colorimetric MTT assay. The MTT assay (Mosmann (1983) J. Immunol Methods 65: 55–63) measures mitochondrial reductase activity and serves for quantitative assessment of cellular viability. Drug concentration that causes 50% reduction in cell viability in comparison to the control group, is defined as EC50. The EC50 values of the tested DP-BFA compounds were calculated from dose response curves established for each of the different assayed cell lines.
Each EC50 value is an average of EC50 values derived from 1–5 independent experiments.

[2] = system: blood brain barrier (BBB); test: Duration of the effect on BBB opening in rat brain; format: in vivo, Sprague Dawley rats; settings: EC50 concentrations of the tested compounds
Description: The effects of DP-BFA on Evans Blue and Fluoroscein extravasation in rat brain were examined at various time points following DP-BFA administration. Various DP-BFA compounds were infused, over a period of 30 seconds, into the external carotid artery of Sprague Dawley rats, following the procedure described above in Example 17. The tested compounds were used at their EC50 concentrations. […] Two compounds, 3,12-PC and 3,12-MEG-PC, both comprising a phosphocholine moiety, have shown D1/2 which was 4 times longer than the other tested 3,12-BFA derivatives, i.e. D1/2 of around 120 min.

[3] = system: blood tumor barrier / blood brain barrier; test: Unilateral administration in rats with bilateral C6 gliomas, Evans blue staining of brain sections; format: in vivo, SD rats; settings: 10 μM 3,12-DEG-HPO4Na; 40 μM 3,12-Na; 25% mannitol; unilateral infusion
Description: FIGS. 2A–C depict Evans blue accumulation in brain sections of rats bearing bilateral gliomas following unilateral administration of a compound as follows: 10 μM 3,12-DEG-HPO4Na (FIG. 2A), 40 μM 3,12-Na (FIG. 2B) or mannitol 25% (FIG. 2C).
Evans Blue and Fluoroscein penetration into gliomas tumors was examined following unilateral infusion into the external carotis artery of either 10 μM 3,12-DEG-HPO4Na (FIG. 2A), 40 μM 3,12-Na BFA (FIG. 2B) or 25% mannitol (FIG. 2C). The relevant compound was infused into rat brains at 9 to 12 days following inoculation of C6 glioma cells as described in Example 23.

[4] = system: caspase-3 activity in Neuro2a neuroblastoma cells; test: Caspase-3 activity in Neuro2a cell lysates (Ac-DEVD-AMC substrate); format: cell-based, mouse
Description: (§1) In order to further explore the possible mechanism underlying the cytotoxic effect exerted by the various DP-BFAs, two established markers for apoptosis, caspase-3 activity and DNA fragmentation (Lincz (1998) Immunol. Cell Biol. 76: 1–19), were studied.
(§2) Neuro2a neuroblastoma cells (ATCC, CCL-131) were seeded in MEM containing 2 mM L-glutamine, 100 units/ml penicillin, 100 ug/ml streptomycin and 10% FCS at 37° C. 24 hours later, when cells were in logarithmic growth phase, 3,12-DEG-PC was added to a final concentration of 25 μM, 50 μM or 100 μM. Cells grown in the presence of vehicle only served as control group.
(§3) Assays for caspase-3 activity and DNA-fragmentation were performed on cell lysates obtained following, respectively, 6 and 24 hours incubation with the drug. Caspase-3 activity was assayed using the fluorogenic substrate Ac-DEVD-AMC (Pharmingen, Becton Dickinson, cat. no. 66081U) and following the manufacture's instructions. DNA-fragmentation was quantified by using the Cell Death Detection Elisa plus kit (Roche, cat. no. 1774 425) and following the manufacture's instructions.
(§4) The measured caspase activity is expressed as percentage of the activity in the control plates normalized to protein content. DNA-fragmentation is expressed as OD values at λ=405 nm and is an average of readings from duplicate cell culture lysates.

[5] = system: DNA fragmentation in Neuro2a neuroblastoma cells; test: DNA fragmentation in Neuro2a cells (Cell Death Detection Elisa); format: cell-based, mouse; settings: for DNA fragmentation (OD405 nm): 24 hours, Neuro2a (control 0.030)
Description: as §1, §2, §3, §4

CCCCCCCCCCCCC(CCC)C(=O)OCCOCCOP(=O)([O-])[O-].[Na+].[Na+] (stereo not drawn) [3,12-DEG-PO4Na2, 2-[2′-(2″-Propyltetradecanoyloxy)-ethoxy]ethyl Disodium Phosphate]
CC50 [1]: 320 µM | EC50 (C6 glioma cell line): 38 µM

CCCCCCCCCCCCC(CCC)C(=O)OCCOP(=O)([O-])OCC[N+](C)(C)C (stereo not drawn) [3,12-MEG-PC, 2-(2′-Propyltetradecanoyloxy)ethylphosphocholine]
D1/2 (duration of at least 50% opening of the BBB) [2]: around 120 min

CCCCCCCCCCCCC(CCC)OP(=O)([O-])OCC[N+](C)(C)C (stereo not drawn) [3,12-PC, 4-Hexadecanyl phosphocholine]
D1/2 (duration of at least 50% opening of the BBB) [2]: around 120 min

2-(4′-Hexadecanoyloxy)ethoxyethyl phosphate [3,12-DEG-PO4]
Evans Blue staining of tumor and non-tumor brain (FIG. 2, in words) [3]: only in the tumor tissue in the ipsilateral hemisphere

CCCCCCCCCCCCC(CCC)C(=O)[O-].[Na+] (stereo not drawn) [3,12-Na, reference compound]
CC50 [1]: 165 µM | Evans Blue staining of tumor and non-tumor brain (FIG. 2, in words) [3]: equally permeabilized tumor and non-tumor brain tissues

CCCCCCCCCCCCC(CCC)C(=O)OCCOCCOP(=O)([O-])OCC[N+](C)(C)C (stereo not drawn) [3,12-DEG-PC, 2-(2′-Propyltetradecanoyloxy)ethoxyethylphosphocholine]
EC50 (C6 glioma cell line; Rattus norvegicus, 72 h): 95 µM | activity at 25 µM ([4]; Mus musculus, N2a, 25 μM, 6 hours, Neuro2a, normalized to protein content, read-out: Caspase activity (% of control)): 210% | activity at 50 µM ([4]; Mus musculus, N2a, 50 μM, 6 hours, Neuro2a, normalized to protein content, read-out: Caspase activity (% of control)): 540% | increase in caspase-3 activity ([4]; Neuro2a cells): about 5 fold | DNA fragmentation (OD405 nm) ([5]; 25 μM): 0.036 OD405 nm | DNA fragmentation (OD405 nm) ([5]; 50 μM): 0.153 OD405 nm | DNA fragmentation (OD405 nm) ([5]; 100 μM): 0.389 OD405 nm | DNA fragmentation (in words) ([5]; Neuro2a cells): significant increase in DNA fragmentation

Source: patent US7186703B2, “Derivatives of branched-chain lipophilic molecules and uses thereof” (D-Pharm Ltd., priority 2000, dated 2007)
